# Experiments:
# Assay in all cases: Kinase profiling (radioactive filter binding)
# Type in all cases: biochemical
# Settings in all cases: 1 uM compound
# BRSK1 = BRSK1 (Homo sapiens, UniProt Q8TDC3)
# Method: (§1) 3A5 and 5E4 were sent to the International Centre for Kinase Profiling at the MRC Protein Phosphorylation and Ubiquitylation Unit for profiling (as described in ref ([17])). Compounds were profiled against 140 kinases using a radioactive ([^33P]ATP) filter binding assay at a concentration of 1 μM. Results were obtained as inhibition of kinase activity and are listed in Supplementary Table 2.
# BRSK2 = BRSK2 (Homo sapiens, UniProt Q8IWQ3)
# Method: as §1
# CDK2-Cyclin A = CDK2-Cyclin A (Homo sapiens, UniProt P24941)
# Method: as §1
# EPH-A4 = EPH-A4 (Homo sapiens, UniProt P54764)
# Method: as §1
# EPH-B2 = EPH-B2 (Homo sapiens, UniProt P29323)
# Method: as §1
# ERK1 = ERK1 (Homo sapiens, UniProt P27361)
# Method: as §1
# ERK2 = ERK2 (Homo sapiens, UniProt P28482)
# Method: as §1
# FGF-R1 = FGF-R1 (Homo sapiens, UniProt P11362)
# Sequence of FGF-R1 (P11362 22-822): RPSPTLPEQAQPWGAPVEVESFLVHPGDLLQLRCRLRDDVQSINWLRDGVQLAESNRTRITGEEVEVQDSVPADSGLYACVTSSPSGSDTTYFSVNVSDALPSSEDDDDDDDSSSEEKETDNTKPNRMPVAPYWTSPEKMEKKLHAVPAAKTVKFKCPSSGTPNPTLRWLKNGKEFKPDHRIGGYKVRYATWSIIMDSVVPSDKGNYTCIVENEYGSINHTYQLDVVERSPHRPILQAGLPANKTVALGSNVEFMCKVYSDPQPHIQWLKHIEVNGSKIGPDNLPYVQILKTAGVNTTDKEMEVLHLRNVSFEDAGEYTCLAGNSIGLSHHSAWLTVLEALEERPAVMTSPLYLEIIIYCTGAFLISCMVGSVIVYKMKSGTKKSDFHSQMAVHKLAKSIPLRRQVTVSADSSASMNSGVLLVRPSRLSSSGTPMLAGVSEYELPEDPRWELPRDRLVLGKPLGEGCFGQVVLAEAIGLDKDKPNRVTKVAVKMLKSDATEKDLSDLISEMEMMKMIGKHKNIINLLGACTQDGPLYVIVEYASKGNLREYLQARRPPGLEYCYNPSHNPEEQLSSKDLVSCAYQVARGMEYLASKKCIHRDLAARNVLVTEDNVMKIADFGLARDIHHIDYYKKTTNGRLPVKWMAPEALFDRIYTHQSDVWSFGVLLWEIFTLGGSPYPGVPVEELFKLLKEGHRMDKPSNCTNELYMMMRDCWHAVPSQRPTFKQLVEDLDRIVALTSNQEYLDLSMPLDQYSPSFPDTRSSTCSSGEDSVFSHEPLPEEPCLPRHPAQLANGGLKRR
# Method: as §1
# GCK = GCK (Homo sapiens, UniProt Q12851)
# Sequence of GCK (Q12851 whole entry): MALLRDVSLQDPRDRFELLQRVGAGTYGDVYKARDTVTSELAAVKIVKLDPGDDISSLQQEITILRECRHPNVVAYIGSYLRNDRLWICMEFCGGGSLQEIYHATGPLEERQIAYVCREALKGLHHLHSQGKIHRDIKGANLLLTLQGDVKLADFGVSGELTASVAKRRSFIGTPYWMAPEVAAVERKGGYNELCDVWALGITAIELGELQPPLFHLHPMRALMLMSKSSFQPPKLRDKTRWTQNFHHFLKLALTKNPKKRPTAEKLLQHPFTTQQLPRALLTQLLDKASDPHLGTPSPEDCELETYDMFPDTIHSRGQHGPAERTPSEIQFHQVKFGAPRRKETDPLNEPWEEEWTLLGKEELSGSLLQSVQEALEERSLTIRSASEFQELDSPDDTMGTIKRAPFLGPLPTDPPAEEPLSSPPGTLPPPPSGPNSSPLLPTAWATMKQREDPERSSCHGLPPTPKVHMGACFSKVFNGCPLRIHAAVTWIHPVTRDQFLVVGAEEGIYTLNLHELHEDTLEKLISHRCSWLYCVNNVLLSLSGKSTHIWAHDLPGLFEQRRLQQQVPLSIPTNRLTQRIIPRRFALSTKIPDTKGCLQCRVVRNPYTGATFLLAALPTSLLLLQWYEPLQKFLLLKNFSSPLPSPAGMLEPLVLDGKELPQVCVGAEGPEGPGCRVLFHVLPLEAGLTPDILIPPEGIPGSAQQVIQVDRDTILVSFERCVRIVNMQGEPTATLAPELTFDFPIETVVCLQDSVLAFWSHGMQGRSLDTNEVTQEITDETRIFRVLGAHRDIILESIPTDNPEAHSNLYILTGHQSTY
# Method: as §1
# HER4 = HER4 (Homo sapiens, UniProt Q15303)
# Sequence of HER4 (Q15303 26-1308): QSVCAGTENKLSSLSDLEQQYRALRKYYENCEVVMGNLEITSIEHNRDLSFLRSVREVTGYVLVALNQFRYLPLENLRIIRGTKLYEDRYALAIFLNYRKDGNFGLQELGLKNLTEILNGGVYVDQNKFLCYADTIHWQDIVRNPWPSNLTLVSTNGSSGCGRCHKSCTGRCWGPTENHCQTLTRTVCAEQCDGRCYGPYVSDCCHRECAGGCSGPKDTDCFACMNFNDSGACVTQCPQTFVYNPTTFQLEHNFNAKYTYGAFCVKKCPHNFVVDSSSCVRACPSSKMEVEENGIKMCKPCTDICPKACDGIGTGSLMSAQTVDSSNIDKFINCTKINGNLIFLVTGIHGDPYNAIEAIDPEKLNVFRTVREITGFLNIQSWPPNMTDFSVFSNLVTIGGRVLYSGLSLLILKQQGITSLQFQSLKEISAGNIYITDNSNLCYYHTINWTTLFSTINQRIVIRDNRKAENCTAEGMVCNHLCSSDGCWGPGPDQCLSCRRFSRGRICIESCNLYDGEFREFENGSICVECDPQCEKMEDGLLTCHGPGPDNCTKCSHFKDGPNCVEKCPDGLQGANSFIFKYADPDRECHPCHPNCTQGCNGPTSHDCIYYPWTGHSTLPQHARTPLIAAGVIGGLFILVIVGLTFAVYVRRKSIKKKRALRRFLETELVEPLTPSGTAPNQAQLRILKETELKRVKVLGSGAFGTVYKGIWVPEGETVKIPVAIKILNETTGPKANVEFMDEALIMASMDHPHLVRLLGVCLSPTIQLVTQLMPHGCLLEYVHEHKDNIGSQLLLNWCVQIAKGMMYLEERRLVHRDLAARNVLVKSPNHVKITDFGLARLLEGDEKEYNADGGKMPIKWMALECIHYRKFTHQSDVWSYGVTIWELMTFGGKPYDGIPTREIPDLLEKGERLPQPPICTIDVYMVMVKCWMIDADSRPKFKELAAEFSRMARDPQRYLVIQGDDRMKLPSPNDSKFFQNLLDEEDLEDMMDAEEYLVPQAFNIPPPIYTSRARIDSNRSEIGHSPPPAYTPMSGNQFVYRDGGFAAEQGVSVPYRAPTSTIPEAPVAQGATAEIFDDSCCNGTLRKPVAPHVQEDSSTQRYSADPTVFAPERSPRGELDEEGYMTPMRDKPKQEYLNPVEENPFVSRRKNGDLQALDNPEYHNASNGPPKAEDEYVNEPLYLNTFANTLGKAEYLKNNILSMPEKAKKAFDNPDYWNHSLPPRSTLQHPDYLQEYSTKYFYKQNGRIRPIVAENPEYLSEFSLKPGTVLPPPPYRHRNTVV
# Method: as §1
# HIPK1 = HIPK1 (Homo sapiens, UniProt Q86Z02)
# Method: as §1
# HIPK3 = HIPK3 (Homo sapiens, UniProt Q9H422)
# Method: as §1
# IGF-1R = IGF-1R (Homo sapiens, UniProt P08069)
# Method: as §1
# IKKb = IKKb (Homo sapiens, UniProt O14920)
# Method: as §1
# Lck = Lck (Homo sapiens, UniProt P06239)
# Method: as §1
# MAP4K5 = MAP4K5 (Homo sapiens, UniProt Q9Y4K4)
# Method: as §1
# MAPKAP-K3 = MAPKAP-K3 (Homo sapiens, UniProt Q16644)
# Sequence of MAPKAP-K3 (Q16644 whole entry): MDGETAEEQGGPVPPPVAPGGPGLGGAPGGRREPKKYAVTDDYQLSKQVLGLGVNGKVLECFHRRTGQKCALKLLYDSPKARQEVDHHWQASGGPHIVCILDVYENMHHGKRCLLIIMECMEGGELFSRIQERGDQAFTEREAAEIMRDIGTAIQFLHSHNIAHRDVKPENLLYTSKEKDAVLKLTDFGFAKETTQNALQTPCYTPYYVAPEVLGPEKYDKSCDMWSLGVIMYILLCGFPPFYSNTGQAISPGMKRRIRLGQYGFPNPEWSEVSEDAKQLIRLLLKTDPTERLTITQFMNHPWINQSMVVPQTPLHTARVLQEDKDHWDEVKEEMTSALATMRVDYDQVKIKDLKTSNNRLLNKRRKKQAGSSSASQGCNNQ
# Method: as §1
# MARK1 = MARK1 (Homo sapiens, UniProt Q9P0L2)
# Method: as §1
# MELK = MELK (Homo sapiens, UniProt Q14680)
# Sequence of MELK (Q14680 whole entry): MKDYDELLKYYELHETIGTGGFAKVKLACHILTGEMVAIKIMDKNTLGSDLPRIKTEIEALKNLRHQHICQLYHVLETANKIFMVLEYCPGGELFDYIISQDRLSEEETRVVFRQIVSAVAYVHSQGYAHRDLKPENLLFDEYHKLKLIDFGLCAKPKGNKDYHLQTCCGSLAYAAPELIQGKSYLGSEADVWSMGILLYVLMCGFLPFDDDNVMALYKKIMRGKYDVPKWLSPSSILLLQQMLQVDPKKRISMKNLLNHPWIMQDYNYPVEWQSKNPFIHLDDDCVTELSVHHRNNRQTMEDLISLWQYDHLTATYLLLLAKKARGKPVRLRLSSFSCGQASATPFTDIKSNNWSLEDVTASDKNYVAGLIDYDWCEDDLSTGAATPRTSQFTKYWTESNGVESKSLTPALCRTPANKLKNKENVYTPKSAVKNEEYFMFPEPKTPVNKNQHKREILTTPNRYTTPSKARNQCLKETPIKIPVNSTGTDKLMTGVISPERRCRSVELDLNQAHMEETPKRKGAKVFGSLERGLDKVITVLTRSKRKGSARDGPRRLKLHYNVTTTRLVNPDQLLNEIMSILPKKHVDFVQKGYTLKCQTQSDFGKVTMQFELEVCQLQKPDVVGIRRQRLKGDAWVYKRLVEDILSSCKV
# Method: as §1
# MINK1 = MINK1 (Homo sapiens, UniProt Q8N4C8)
# Method: as §1
# MKK6 = MKK6 (Homo sapiens, UniProt P52564)
# Method: as §1
# MLK1 = MLK1 (Homo sapiens, UniProt P80192)
# Method: as §1
# MNK1 = MNK1 (Homo sapiens, UniProt Q9BUB5)
# Method: as §1
# MNK2 = MNK2 (Homo sapiens, UniProt Q9HBH9)
# Method: as §1
# MSK1 = MSK1 (Homo sapiens, UniProt O75582)
# Method: as §1
# MST3 = MST3 (Homo sapiens, UniProt Q9Y6E0)
# Method: as §1
# OSR1 = OSR1 (Homo sapiens, UniProt O95747)
# Method: as §1
# PAK4 = PAK4 (Homo sapiens, UniProt O96013)
# Method: as §1
# PAK6 = PAK6 (Homo sapiens, UniProt Q9NQU5)
# Method: as §1
# PINK = PINK (Tribolium castaneum, UniProt D6WMX4)
# Method: as §1
# PKA = PKA (Homo sapiens, UniProt P17612)
# Method: as §1
# PKBb = PKBb (Homo sapiens, UniProt P31751)
# Method: as §1
# TAK1 = TAK1 (Homo sapiens, UniProt O43318)
# Sequence of TAK1 (O43318 1-303 limits assumed): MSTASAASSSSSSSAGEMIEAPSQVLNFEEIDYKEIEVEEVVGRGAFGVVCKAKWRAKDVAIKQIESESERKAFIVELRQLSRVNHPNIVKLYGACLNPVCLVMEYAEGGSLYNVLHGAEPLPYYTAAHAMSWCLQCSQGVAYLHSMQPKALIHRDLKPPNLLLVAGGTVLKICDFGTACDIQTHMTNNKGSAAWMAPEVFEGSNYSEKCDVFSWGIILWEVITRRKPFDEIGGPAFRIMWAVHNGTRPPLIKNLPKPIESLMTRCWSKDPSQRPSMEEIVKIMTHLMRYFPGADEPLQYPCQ
# Method: as §1
# TAO1 = TAO1 (Homo sapiens, UniProt Q7L7X3)
# Method: as §1
# TBK1 = TBK1 (Homo sapiens, UniProt Q9UHD2)
# Method: as §1
# TGFBR1 = TGFBR1 (Homo sapiens, UniProt P36897)
# Method: as §1
# TSSK1 = TSSK1 (Homo sapiens, UniProt Q9BXA7)
# Sequence of TSSK1 (Q9BXA7 whole entry): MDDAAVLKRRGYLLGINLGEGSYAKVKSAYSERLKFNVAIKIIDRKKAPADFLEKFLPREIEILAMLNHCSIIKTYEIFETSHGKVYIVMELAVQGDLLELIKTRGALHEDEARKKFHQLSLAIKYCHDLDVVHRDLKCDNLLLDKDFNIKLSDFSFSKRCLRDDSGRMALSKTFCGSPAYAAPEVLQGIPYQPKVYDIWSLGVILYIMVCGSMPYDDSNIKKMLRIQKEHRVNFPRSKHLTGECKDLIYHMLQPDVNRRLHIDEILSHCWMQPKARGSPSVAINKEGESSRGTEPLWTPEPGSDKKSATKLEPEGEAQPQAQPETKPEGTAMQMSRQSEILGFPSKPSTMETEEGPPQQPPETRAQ
# Method: as §1
# ULK2 = ULK2 (Homo sapiens, UniProt Q8IYT8)
# Method: as §1
# VEG-FR = VEG-FR (Homo sapiens, UniProt P17948)
# Method: as §1
# ZAP70 = ZAP70 (Homo sapiens, UniProt P43403)
# Method: as §1
# p38a MAPK = p38a MAPK (Homo sapiens, UniProt Q16539)
# Sequence of p38a MAPK (Q16539 whole entry): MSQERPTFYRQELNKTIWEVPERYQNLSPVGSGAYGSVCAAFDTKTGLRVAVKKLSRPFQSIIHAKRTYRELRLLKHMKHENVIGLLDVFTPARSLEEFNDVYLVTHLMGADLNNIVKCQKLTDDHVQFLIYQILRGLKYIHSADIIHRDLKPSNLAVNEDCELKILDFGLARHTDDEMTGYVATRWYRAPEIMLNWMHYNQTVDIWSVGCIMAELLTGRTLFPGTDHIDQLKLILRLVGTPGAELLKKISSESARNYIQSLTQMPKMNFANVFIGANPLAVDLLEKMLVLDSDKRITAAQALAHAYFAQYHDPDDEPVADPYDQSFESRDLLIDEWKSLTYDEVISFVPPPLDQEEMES
# Method: as §1
# p38b MAPK = p38b MAPK (Homo sapiens, UniProt Q15759)
# Method: as §1
smiles,measurement,setting,value
"Cc1nc2ccc3sc(NC(=O)c4ccc5ncsc5c4)nc3c2s1 [3A5, N-(2-methyl[1,3]thiazolo[5,4-e][1,3]benzothiazol-7-yl)-1,3-benzothiazole-6-carboxamide]",BRSK1 activity in kinase profiling,BRSK1,101
same,BRSK2 activity in kinase profiling,BRSK2,88
same,CDK2-Cyclin A activity in kinase profiling,CDK2-Cyclin A,115
same,EPH-A4 activity in kinase profiling,EPH-A4,120
same,EPH-B2 activity in kinase profiling,EPH-B2,90
same,ERK1 activity in kinase profiling,ERK1,102
same,ERK2 activity in kinase profiling,ERK2,109
same,FGF-R1 activity in kinase profiling,FGF-R1,149
same,GCK activity in kinase profiling,GCK,90
same,HER4 activity in kinase profiling,HER4,94
same,HIPK1 activity in kinase profiling,HIPK1,105
same,HIPK3 activity in kinase profiling,HIPK3,100
same,IGF-1R activity in kinase profiling,IGF-1R,123
same,IKKb activity in kinase profiling,IKKb,85
same,Lck activity in kinase profiling,Lck,116
same,MAP4K5 activity in kinase profiling,MAP4K5,91
same,MAPKAP-K3 activity in kinase profiling,MAPKAP-K3,81
same,MARK1 activity in kinase profiling,MARK1,103
same,MELK activity in kinase profiling,MELK,69
same,MINK1 activity in kinase profiling,MINK1,89
same,MKK6 activity in kinase profiling,MKK6,119
same,MLK1 activity in kinase profiling,MLK1,73
same,MNK1 activity in kinase profiling,MNK1,109
same,MNK2 activity in kinase profiling,MNK2,86
same,MSK1 activity in kinase profiling,MSK1,86
same,MST3 activity in kinase profiling,MST3,100
same,OSR1 activity in kinase profiling,OSR1,101
same,PAK4 activity in kinase profiling,PAK4,84
same,PAK6 activity in kinase profiling,PAK6,96
same,PINK activity in kinase profiling,PINK,115
same,PKA activity in kinase profiling,PKA,98
same,activity at 1 µM,PKBb,125%
same,TAK1 activity in kinase profiling,TAK1,87
same,TAO1 activity in kinase profiling,TAO1,94
same,TBK1 activity in kinase profiling,TBK1,83
same,TGFBR1 activity in kinase profiling,TGFBR1,93
same,TSSK1 activity in kinase profiling,TSSK1,81
same,ULK2 activity in kinase profiling,ULK2,92
same,VEG-FR activity in kinase profiling,VEG-FR,108
same,ZAP70 activity in kinase profiling,ZAP70,109
same,p38a MAPK activity in kinase profiling,p38a MAPK,94
same,p38b MAPK activity in kinase profiling,p38b MAPK,100
"CSc1nc2ccc3nc(NC(=O)c4ccco4)sc3c2s1 [5E4, N-[7-(methylsulfanyl)[1,3]thiazolo[4,5-g][1,3]benzothiazol-2-yl]-2-furamide]",BRSK1 activity in kinase profiling,BRSK1,86
same,BRSK2 activity in kinase profiling,BRSK2,83
same,CDK2-Cyclin A activity in kinase profiling,CDK2-Cyclin A,101
same,EPH-A4 activity in kinase profiling,EPH-A4,112
same,EPH-B2 activity in kinase profiling,EPH-B2,94
same,ERK1 activity in kinase profiling,ERK1,104
same,ERK2 activity in kinase profiling,ERK2,112
same,FGF-R1 activity in kinase profiling,FGF-R1,109
same,GCK activity in kinase profiling,GCK,24
same,HER4 activity in kinase profiling,HER4,102
same,HIPK1 activity in kinase profiling,HIPK1,25
same,HIPK3 activity in kinase profiling,HIPK3,50
same,IGF-1R activity in kinase profiling,IGF-1R,117
same,IKKb activity in kinase profiling,IKKb,90
same,Lck activity in kinase profiling,Lck,101
same,MAP4K5 activity in kinase profiling,MAP4K5,89
same,MAPKAP-K3 activity in kinase profiling,MAPKAP-K3,86
same,MARK1 activity in kinase profiling,MARK1,107
same,MELK activity in kinase profiling,MELK,71
same,MINK1 activity in kinase profiling,MINK1,8
same,MKK6 activity in kinase profiling,MKK6,101
same,MLK1 activity in kinase profiling,MLK1,25
same,MNK1 activity in kinase profiling,MNK1,99
same,MNK2 activity in kinase profiling,MNK2,88
same,MSK1 activity in kinase profiling,MSK1,109
same,MST3 activity in kinase profiling,MST3,99
same,OSR1 activity in kinase profiling,OSR1,111
same,PAK4 activity in kinase profiling,PAK4,74
same,PAK6 activity in kinase profiling,PAK6,104
same,PINK activity in kinase profiling,PINK,118
same,PKA activity in kinase profiling,PKA,97
same,activity at 1 µM,PKBb,121%
same,TAK1 activity in kinase profiling,TAK1,67
same,TAO1 activity in kinase profiling,TAO1,99
same,TBK1 activity in kinase profiling,TBK1,83
same,TGFBR1 activity in kinase profiling,TGFBR1,94
same,TSSK1 activity in kinase profiling,TSSK1,81
same,ULK2 activity in kinase profiling,ULK2,81
same,VEG-FR activity in kinase profiling,VEG-FR,53
same,ZAP70 activity in kinase profiling,ZAP70,93
same,p38a MAPK activity in kinase profiling,p38a MAPK,96
same,p38b MAPK activity in kinase profiling,p38b MAPK,98

# Reference: article PMC4730229, “Benzobisthiazoles Represent a Novel Scaffold for Kinase Inhibitors of CLK Family Members” (Biochemistry, 2015)
